{"source": "patent US8536231B2", "about": "“Methods for treating diabetic foot ulcers” (priority 2011, dated 2013)", "tested_on": "diabetic foot ulcers", "conditions": "human, in vivo", "description": "The study was designed as a randomized, parallel-group, double-blind, placebo-controlled, multi-center trial. After 14-days of best-of-care to evaluate ulcer healing and ensure the wounds were chronic, four-weeks of active treatment were then followed by eight weeks of observation and assessment. The study compared the effects of two concentrations of NorLeu^3-A(1-7) and placebo, measuring both clinical efficacy and safety. Sustained tissue integrity was evaluated for all subjects during a follow-up period lasting 12 weeks after complete wound closure.\nSubjects were randomized in a 1:1:1 ratio to one of the three treatment groups: • Group 1: Placebo Vehicle Control without NorLeu^3-A(1-7) (also referred to as “DSC127”) (2% Hydroxyethyl Cellulose (HEC) with 0.1% methyl paraben, 0.02% propyl paraben) • Group 2: 0.03% NorLeu^3-A(1-7) in Vehicle • Group 3: 0.01% NorLeu^3-A(1-7) in Vehicle\nThe four-week treatment period required daily application of the treatment to the wound site. The first application each week was at the clinic and for the remainder of the week the patient self-administered the treatment.\nIf wound healing occurred during the treatment or assessment periods a final assessment visit was conducted and the integrity was assessed 4 and 12 weeks later (usually weeks 16 and 24 of the study). […]", "note": "Non-standard residues stand in square brackets, D forms with d. Residues, ends and D or L forms follow the SMILES beside them. Nle = CCCC[C@H](N)C(=O)O"}
{"smiles": "CCCC[C@H](NC(=O)[C@H](CCCNC(=N)N)NC(=O)[C@@H](N)CC(=O)O)C(=O)N[C@@H](Cc1ccc(O)cc1)C(=O)N[C@H](C(=O)N[C@@H](Cc1c[nH]cn1)C(=O)N1CCC[C@H]1C(=O)O)[C@@H](C)CC", "note": "[NorLeu^3-A(1-7), Asp-Arg-Nle-Tyr-Ile-His-Pro] (H-DR[Nle]YIHP-OH; N-terminus and C-terminus assumed)", "values": [{"measurement": "adverse events associated with treatment", "result": "no significant adverse events"}, {"measurement": "tolerability", "result": "well-tolerated"}]}
